Measurements as given in PMC10419174, “WR1065 conjugated to thiol-PEG polymers as novel anticancer prodrugs: broad spectrum efficacy, synergism, and drug resistance reversal” (Frontiers in Oncology, 2023).
Several values for one entry are separate records, joined by “and”; a condition that tells them apart may be missing. Equal values may be shown once. Read-outs that look alike come from different tables or passages of the source. Marks after values point to notes of the source that are not given here.

Assays:
[1] = test system: Malignant pleural mesothelioma HMESO1 cells; settings: for Fold increase in efficacy: drug alone ÷ drug in 4SP65-DDP combination
Procedure: (§1) The percentage of growth inhibition was calculated as follows: […]

[2] = test system: Promyelocytic HL-60 leukemia cells; assay type: cell-based
Procedure: as §1

[3] = test system: Mammary gland MDA-MB-231 cells; experiment: CyQUANT-NF proliferation assay, 48-h drug treatment; assay type: cell-based
Procedure: Since the BRG prodrugs are composed of WR1065 as one of the major constituents, assays were conducted to determine if factors reported to modulate the activity of amino acid and polyamine plasma membrane transport systems impacted the efficacy of 4SP65 or 1LP65 in selected cancer cell lines. HL60 cells were exposed to 4SP65 with up to 0.5 mM NaCl, MBA-MD-231 cells were tested in the presence and absence of medium supplemented with estradiol plus insulin (in the BulletKit™ for growth supplements for NHMECs), HCC38 cells were exposed to 4SP65 with and without 10 µM insulin added to the growth medium, and multiple cells lines were pretreated for 24 h with 1 mM DFMO prior to starting exposures to 4SP65.
as §1

A549 NSCLC cells = experiment: cells
Procedure: as §1

Ovary SKOV3 cells = experiment: cells; settings: for Fold increase in efficacy: drug alone ÷ drug in 4SP65-DDP combination
Procedure: as §1

[4] = 48-h treatment, amifostine ND = not definable up to 500 µM
[5] = drug alone, 48 h, 4SP65/cisplatin study
[6] = drug alone, 48 h, 4SP65/gefitinib study
[7] = drug alone, 48 h, 4SP65/gefitinib study, ND = not definable, highest concentration in parentheses

4-star-PEG-S-S-WR1065 [4SP65]
GI50 [1, 4]: 1.3 ± 0.4 µM | IC50 [1, 4]: 2.9 ± 1 µM | LC99 [1, 4]: 7.9 ± 2.6 µM | TGI [1, 4]: 2.9 ± 0.8 µM | Fold increase in efficacy ([1]; at GI50): 1.5 (NS) fold | Fold increase in efficacy ([1]; at IC50): 1.1 (NS) fold | Fold increase in efficacy ([1]; at LC50, GoE = gain of effect): 1.0 (NS) fold | Fold increase in efficacy ([1]; at LC99, GoE = gain of effect): 1.1 (NS) fold | Fold increase in efficacy ([1]; at TGI): 1.3 (NS) fold | GI50 [1, 5]: 2 ± 0.3 µM | IC50 [1, 5]: 4.7 ± 0.2 µM | TGI [1, 5]: 4.3 ± 0.2 µM | LC99 ([1]; drug alone, 48 h, 4SP65/cisplatin study, ND = not definable, highest concentration in parentheses): 12.4 ± 0.1 µM | CC50 [2]: 7.5 ± 2.1 µM | GI50 ([2]; 48-h treatment): 1.9 ± 0.6 µM | IC50 ([2]; 48-h treatment): 4.4 ± 0.9 µM | LC99 ([2]; 48-h treatment): 10.2 ± 3.4 µM | TGI ([2]; 48-h treatment): 4.7 ± 0.7 µM and 4.7 µM | CC50 [3]: 9.2 ± 1.2 µM | IC50 [3, 4]: 4.7 ± 0.9 µM | LC99 [3, 4]: 11.0 ± 1.8 µM | TGI [3, 4]: 6.6 ± 1.0 µM and 6.6 µM | selectivity index ([3]; IC50 in NHMECs ÷ IC50 in MDA-MB-231, average): > 26 | Dose reduction value 1LP65 ÷ 4SP65 ([3]; at GI50): 26 fold | Dose reduction value 1LP65 ÷ 4SP65 ([3]; at IC50): 15 fold | Dose reduction value 1LP65 ÷ 4SP65 ([3]; at LC50): 15 fold | Dose reduction value 1LP65 ÷ 4SP65 ([3]; at LC99): 14 fold | Dose reduction value 1LP65 ÷ 4SP65 ([3]; at TGI): 21 fold | fold increase in drug efficacy at the TGI level with hormones ([3]; insulin plus estradiol): ~4 fold | TGI ([3]; with insulin plus estradiol, 48 h): 1.2 µM | TGI ([3]; without hormones, 48 h (pilot experiment)): 4.6 µM | gains of cytostatic and cytolytic activities, range (A549 NSCLC cells; 4SP65-cisplatin combined): 1.9- to 2.4 fold | GI50 (A549 NSCLC cells; [4]): 5.3 ± 1.1 µM | IC50 (A549 NSCLC cells; [4]): 6.8 ± 1.3 µM | LC99 (A549 NSCLC cells; [4]): 14.9 ± 3.8 µM | TGI (A549 NSCLC cells; [4]): 8.5 ± 1.5 µM and 8.5 µM | LC99, drug in combination (CMB) (A549 NSCLC cells; amount of each drug in combination, ratio 50% 4SP65:50% DDP, 48 h): 8 µM | Dose reduction value 1LP65 ÷ 4SP65 (A549 NSCLC cells; at GI50): 9.9 fold | Dose reduction value AMF ÷ 4SP65 (A549 NSCLC cells; at GI50): 43 fold | Dose reduction value 1LP65 ÷ 4SP65 (A549 NSCLC cells; at IC50): 9.8 fold | Dose reduction value AMF ÷ 4SP65 (A549 NSCLC cells; at IC50): 37 fold | Dose reduction value 1LP65 ÷ 4SP65 (A549 NSCLC cells; at LC50): 13 fold | Dose reduction value 1LP65 ÷ 4SP65 (A549 NSCLC cells; at LC99): 13 fold | Dose reduction value 1LP65 ÷ 4SP65 (A549 NSCLC cells; at TGI): 15 fold | Fold increase in efficacy (A549 NSCLC cells; drug alone ÷ drug in 4SP65-DDP combination, at GI50): 2.4* fold | Fold increase in efficacy (A549 NSCLC cells; drug alone ÷ drug in 4SP65-DDP combination, at IC50): 2.2* fold | Fold increase in efficacy (A549 NSCLC cells; drug alone ÷ drug in 4SP65-DDP combination, at LC50): 1.9* fold | Fold increase in efficacy (A549 NSCLC cells; drug alone ÷ drug in 4SP65-DDP combination, at LC99): 1.9* fold | Fold increase in efficacy (A549 NSCLC cells; drug alone ÷ drug in 4SP65-DDP combination, at TGI): 1.9* fold | Fold increase in efficacy (A549 NSCLC cells; drug alone ÷ drug in 4SP65-GEF combination, at GI50): 1.5** fold | Fold increase in efficacy (A549 NSCLC cells; drug alone ÷ drug in 4SP65-GEF combination, at IC50): 1.4** fold | Fold increase in efficacy (A549 NSCLC cells; drug alone ÷ drug in 4SP65-GEF combination, at LC50, GoE = gain of effect): 1.1 (NS) fold | Fold increase in efficacy (A549 NSCLC cells; drug alone ÷ drug in 4SP65-GEF combination, at LC99, GoE = gain of effect): 1.0 (NS) fold | Fold increase in efficacy (A549 NSCLC cells; drug alone ÷ drug in 4SP65-GEF combination, at TGI, GoE = gain of effect): 1.5** fold | GI50 (A549 NSCLC cells; [5]): 5.4 ± 2.5 µM | IC50 (A549 NSCLC cells; [5]): 6.8 ± 1.3 µM | LC99 (A549 NSCLC cells; [5]): 14.9 ± 3.8 µM | TGI (A549 NSCLC cells; [5]): 8.3 ± 1.5 µM | GI50 (A549 NSCLC cells; [6]): 6 ± 0.6 µM | IC50 (A549 NSCLC cells; [6]): 7.4 ± 0.7 µM | LC99 (A549 NSCLC cells; [7]): 12.3 ± 3.8 µM | TGI (A549 NSCLC cells; [7]): 11.3 ± 1.5 µM | GI50 (Ovary SKOV3 cells; [4]): 4 ± 0.8 µM | IC50 (Ovary SKOV3 cells; [4]): 5.1 ± 0.9 µM | LC99 (Ovary SKOV3 cells; [4]): 10.5 ± 1.5 µM | TGI (Ovary SKOV3 cells; [4]): 6.8 ± 0.9 µM and 6.8 µM | fold more effective as a cytostatic agent than PRIMA-1 or APR-246 (Ovary SKOV3 cells; TP53-null SKOV3 cells): 3.3- to 16 fold | Dose reduction value 1LP65 ÷ 4SP65 (Ovary SKOV3 cells; at GI50): 10 fold | Dose reduction value AMF ÷ 4SP65 (Ovary SKOV3 cells; at GI50): 20 fold | Dose reduction value 1LP65 ÷ 4SP65 (Ovary SKOV3 cells; at IC50): 8.9 fold | Dose reduction value AMF ÷ 4SP65 (Ovary SKOV3 cells; at IC50): 58 fold | Dose reduction value 1LP65 ÷ 4SP65 (Ovary SKOV3 cells; at LC50): 7.5 fold | Dose reduction value 1LP65 ÷ 4SP65 (Ovary SKOV3 cells; at LC99): 9.4 fold | Dose reduction value 1LP65 ÷ 4SP65 (Ovary SKOV3 cells; at TGI): 7.4 fold | Fold increase in efficacy (Ovary SKOV3 cells; at GI50): 1.5** fold | Fold increase in efficacy (Ovary SKOV3 cells; at IC50): 1.8** fold | Fold increase in efficacy (Ovary SKOV3 cells; at LC50, GoE = gain of effect): 1.3** fold | Fold increase in efficacy (Ovary SKOV3 cells; at LC99, GoE = gain of effect): 1.3* fold | Fold increase in efficacy (Ovary SKOV3 cells; at TGI, GoE = gain of effect): 1.5* fold | GI50 (Ovary SKOV3 cells; [5]): 4.3 ± 1 µM | IC50 (Ovary SKOV3 cells; [5]): 5.2 ± 1 µM
